Assay [1] relates to Mycobacterium kansasii 6509/96. Briefly: MIC, micro method in Šula's semisynthetic medium, M. kansasii clinical isolate. The format is cell-based. The following applies: read-out: MIC M. kansasii 6509/96.
The test system of the next assay is Mtb 331/88 (i.e., H37Rv). The assay is described as follows: MIC, micro method in Šula's semisynthetic medium, drug-susceptible Mtb. The format is cell-based, Mycobacterium tuberculosis. The following applies: Mycobacterium tuberculosis, H37RV.
The test system of the next assay is HepG2 cells. The assay is described as follows: Cytotoxicity on HepG2 cell line (CellTiter 96). Type of assay: cell-based, human. As to conditions: read-out: IC50 HepG2.
For assay [2], the system named is Mycobacterium avium 330/88. The assay is described as follows: MIC, micro method in Šula's semisynthetic medium, M. avium. Type of assay: cell-based.
The mark [3] stands for this setting: 330/88, 336 h, read-out: MIC M. avium 330/88.
Setting [4] is: 330/88, 504 h, read-out: MIC M. avium 330/88.

We go through nine molecules from publication PMC12121777 (PLOS One, 2025).

Converted amounts (≈) assume the structure as drawn. Read-outs that look alike come from different tables or passages of the source.

For the molecule `CCCCNC(=O)NNC(=O)c1cc([N+](=O)[O-])cc([N+](=O)[O-])c1` [Compound 4d, N-Butyl-2-(3,5-dinitrobenzoyl)hydrazine-1-carboxamide], the MIC in assay [1] (6509/96, 168 h) was 2 µM (≈ 0.651 µg/mL); in assay [1] (6509/96, 336 h), 4 µM (≈ 1.3 µg/mL); in assay [1] (6509/96, 504 h) it was 4 µM (≈ 1.3 µg/mL); with Mtb 331/88 (i.e., H37Rv) (336 h, 14 days), 2 µM (≈ 0.651 µg/mL); in the assay with Mtb 331/88 (i.e., H37Rv) (504 h, 21 days) it was 2 µM (≈ 0.651 µg/mL); in assay [2] (setting [3]) it was 1000 µM (≈ 325 µg/mL). The MIC in assay [2] (setting [4]) stood at 1000 µM (≈ 325 µg/mL). Besides, the IC50 (usually the point on the concentration scale where inhibition reaches its midpoint) with HepG2 cells (Homo sapiens, HepG2, 24 h) was determined as 198 µM.

For the molecule `CCCCCNC(=O)NNC(=O)c1cc([N+](=O)[O-])cc([N+](=O)[O-])c1` [Compound 4e, 2-(3,5-Dinitrobenzoyl)-N-pentylhydrazine-1-carboxamide], the MIC in assay [1] (6509/96, 168 h) came out at 1 µM (≈ 0.339 µg/mL); in assay [1] (6509/96, 336 h), 1 µM (≈ 0.339 µg/mL); in assay [1] (6509/96, 504 h), 2 µM (≈ 0.679 µg/mL); with Mtb 331/88 (i.e., H37Rv) (336 h, 14 days), 1 µM (≈ 0.339 µg/mL); against Mtb 331/88 (i.e., H37Rv) (504 h, 21 days), 1 µM (≈ 0.339 µg/mL); in assay [2] (setting [3]), 1000 µM (≈ 339 µg/mL). The MIC in assay [2] (setting [4]) worked out at 1000 µM (≈ 339 µg/mL). Also, the IC50 in the assay on HepG2 cells (Homo sapiens, HepG2, 24 h) stood at 134 µM.

On to `CCCCCCNC(=O)NNC(=O)c1cc([N+](=O)[O-])cc([N+](=O)[O-])c1` [Compound 4f, 2-(3,5-Dinitrobenzoyl)-N-hexylhydrazine-1-carboxamide], for which the MIC in assay [1] (6509/96, 168 h) stood at 1 µM (≈ 0.353 µg/mL); in assay [1] (6509/96, 336 h), 1 µM (≈ 0.353 µg/mL); in assay [1] (6509/96, 504 h), 1 µM (≈ 0.353 µg/mL); in the assay with Mtb 331/88 (i.e., H37Rv) (336 h, 14 days), 1 µM (≈ 0.353 µg/mL); against Mtb 331/88 (i.e., H37Rv) (504 h, 21 days) it was 1 µM (≈ 0.353 µg/mL); in assay [2] (setting [3]), 250 µM (≈ 88.3 µg/mL). In addition, the MIC in assay [2] (setting [4]) is 250 µM (≈ 88.3 µg/mL); in assay [2] (330/88, read-out: MIC M. avium), 125 to 250 µM (≈ 44.2 to 88.3 µg/mL). In addition, the IC50 with HepG2 cells (Homo sapiens, HepG2, 24 h) was 119 µM.

As for `CCCCCCCNC(=O)NNC(=O)c1cc([N+](=O)[O-])cc([N+](=O)[O-])c1` [Compound 4g, 2-(3,5-Dinitrobenzoyl)-N-heptylhydrazine-1-carboxamide], the MIC in assay [1] (6509/96, 168 h) came to 1 µM (≈ 0.367 µg/mL); in assay [1] (6509/96, 336 h) it was 1 µM (≈ 0.367 µg/mL); in assay [1] (6509/96, 504 h), 1 µM (≈ 0.367 µg/mL); against Mtb 331/88 (i.e., H37Rv) (336 h, 14 days) it was 0.5 µM (≈ 0.184 µg/mL); against Mtb 331/88 (i.e., H37Rv) (504 h, 21 days), 0.5 µM (≈ 0.184 µg/mL); in assay [2] (setting [3]), 125 µM (≈ 45.9 µg/mL). Moreover, the MIC in assay [2] (setting [4]) is 250 µM (≈ 91.8 µg/mL); in assay [2] (330/88, read-out: MIC M. avium), 125 to 250 µM (≈ 45.9 to 91.8 µg/mL). In addition, the IC50 with HepG2 cells (Homo sapiens, HepG2, 24 h) amounted to 117 µM.

Turning to `CCCCCCCCCNC(=O)NNC(=O)c1cc([N+](=O)[O-])cc([N+](=O)[O-])c1` [Compound 4i, 2-(3,5-Dinitrobenzoyl)-N-nonylhydrazine-1-carboxamide], the MIC in assay [1] (6509/96, 168 h) came out at 1 µM (≈ 0.395 µg/mL); in assay [1] (6509/96, 336 h), 1 µM (≈ 0.395 µg/mL); in assay [1] (6509/96, 504 h), 1 µM (≈ 0.395 µg/mL); in the assay with Mtb 331/88 (i.e., H37Rv) (336 h, 14 days), 0.5 µM (≈ 0.198 µg/mL); in the assay on Mtb 331/88 (i.e., H37Rv) (504 h, 21 days), 1 µM (≈ 0.395 µg/mL); in assay [2] (setting [3]), 125 µM (≈ 49.4 µg/mL). The MIC in assay [2] (setting [4]) was 250 µM (≈ 98.9 µg/mL); in assay [2] (330/88, read-out: MIC M. avium) it was 125 to 250 µM (≈ 49.4 to 98.9 µg/mL). The IC50 in the assay on HepG2 cells (Homo sapiens, HepG2, 24 h) was determined as 125 µM.

Regarding `CCCCCCCCCCNC(=O)NNC(=O)c1cc([N+](=O)[O-])cc([N+](=O)[O-])c1` [Compound 4j, N-Decyl-2-(3,5-dinitrobenzoyl)hydrazine-1-carboxamide], the MIC in assay [1] (6509/96, 168 h) was 1 µM (≈ 0.409 µg/mL); in assay [1] (6509/96, 336 h), 2 µM (≈ 0.819 µg/mL); in assay [1] (6509/96, 504 h) it was 4 µM (≈ 1.64 µg/mL); in the assay with Mtb 331/88 (i.e., H37Rv) (336 h, 14 days), 1 µM (≈ 0.409 µg/mL); with Mtb 331/88 (i.e., H37Rv) (504 h, 21 days), 1 µM (≈ 0.409 µg/mL); in assay [2] (setting [3]), more than 500 µM. In assay [2] (setting [4]), the MIC is more than 500 µM. Also, the 50% inhibitory concentration (IC50) in the assay on HepG2 cells (Homo sapiens, HepG2, 24 h) was determined as 141 µM.

As for `CCCCCCCCCCCNC(=O)NNC(=O)c1cc([N+](=O)[O-])cc([N+](=O)[O-])c1` [Compound 4k, 2-(3,5-Dinitrobenzoyl)-N-undecylhydrazine-1-carboxamide], the MIC in assay [1] (6509/96, 168 h) is 2 µM (≈ 0.847 µg/mL); in assay [1] (6509/96, 336 h), 4 µM (≈ 1.69 µg/mL); in assay [1] (6509/96, 504 h), 4 µM (≈ 1.69 µg/mL); in the assay on Mtb 331/88 (i.e., H37Rv) (336 h, 14 days), 1 µM (≈ 0.423 µg/mL); with Mtb 331/88 (i.e., H37Rv) (504 h, 21 days), 1 µM (≈ 0.423 µg/mL); in assay [2] (setting [3]), more than 500 µM. In assay [2] (setting [4]), the MIC is more than 500 µM. The IC50 in the assay on HepG2 cells (Homo sapiens, HepG2, 24 h) was less than 100 µM; in the assay on HepG2 cells, 99.9 µM.

`CCCCCCCCCCCCCCCCNc1nnc(-c2cc([N+](=O)[O-])cc([N+](=O)[O-])c2)o1` [Compound 5p, 5-(3,5-Dinitrophenyl)-N-hexadecyl-1,3,4-oxadiazol-2-amine]: the MIC in assay [1] (6509/96, 168 h) worked out at 2 µM (≈ 0.951 µg/mL); in assay [1] (6509/96, 336 h), 4 µM (≈ 1.9 µg/mL); in assay [1] (6509/96, 504 h) it was 8 µM (≈ 3.8 µg/mL); in the assay with Mtb 331/88 (i.e., H37Rv) (336 h, 14 days), 8 µM (≈ 3.8 µg/mL); with Mtb 331/88 (i.e., H37Rv) (504 h, 21 days) it was 8 µM (≈ 3.8 µg/mL); in assay [2] (setting [3]), 8 µM (≈ 3.8 µg/mL). For the same molecule, the MIC in assay [2] (setting [4]) is 16 µM (≈ 7.61 µg/mL).

With `CCCCCCCCCCCCCCCCCNc1nnc(-c2cc([N+](=O)[O-])cc([N+](=O)[O-])c2)o1` [Compound 5q, 5-(3,5-Dinitrophenyl)-N-heptadecyl-1,3,4-oxadiazol-2-amine], the MIC in assay [1] (6509/96, 168 h) was 8 µM (≈ 3.92 µg/mL); in assay [1] (6509/96, 336 h) it was 16 µM (≈ 7.83 µg/mL); in assay [1] (6509/96, 504 h), 32 µM (≈ 15.7 µg/mL); in the assay on Mtb 331/88 (i.e., H37Rv) (336 h, 14 days) it was 32 µM (≈ 15.7 µg/mL); with Mtb 331/88 (i.e., H37Rv) (504 h, 21 days) it was more than 32 µM; in assay [2] (setting [3]), 32 µM (≈ 15.7 µg/mL). Moreover, the MIC in assay [2] (setting [4]) was found to be 64 µM (≈ 31.3 µg/mL).
